Results taken from the NIST ThermoML archive (doi:10.1016/j.fluid.2006.05.032).

Settings: Liquid, Vibrating tube method

Cc1ccccc1 [toluene]
mass density [kg/m3]
Settings | 293.15 K | 303.15 K | 313.15 K | 323.15 K | 333.15 K | 343.15 K | 353.15 K
100 kPa | 867.1 | 857.5 | 847.8 | 838.4 | 828.8 | 819.4 | 809.7
5000 kPa | 870.6 | 861.4 | 852 | 842.7 | 833.5 | 824.5 | 815.1
10000 kPa | 874.2 | 865.1 | 856.1 | 847 | 838.2 | 829.3 | 820.3
15000 kPa | 877.6 | 869 | 859.9 | 851.1 | 842.6 | 833.9 | 825.3
20000 kPa | 881.1 | 872.4 | 863.5 | 855 | 846.6 | 838.1 | 829.9
25000 kPa | 884.2 | 875.8 | 867.1 | 858.9 | 850.5 | 842.3 | 834
30000 kPa | 887.3 | 879 | 870.5 | 862.5 | 854.3 | 846.2 | 838.2
35000 kPa | 890.3 | 882.1 | 873.8 | 866 | 857.9 | 850.1 | 842.2
40000 kPa | 893.3 | 885.2 | 877 | 869.4 | 861.4 | 853.7 | 846.1
45000 kPa | 896.1 | 888.2 | 880.2 | 872.5 | 864.8 | 857.4 | 849.8
50000 kPa | 898.9 | 891.1 | 883.3 | 875.7 | 868.1 | 860.8 | 853.3
55000 kPa | 901.6 | 894 | 886.2 | 878.7 | 871.4 | 864.2 | 856.7
60000 kPa | 904.2 | 896.7 | 889 | 881.7 | 874.5 | 867.4 | 860.1
65000 kPa | 906.7 | 899.2 | 891.8 | 884.6 | 877.5 | 870.3 | 863.5

CCCO [propan-1-ol]
mass density [kg/m3]
Settings | 293.15 K | 303.15 K | 313.15 K | 323.15 K | 333.15 K | 343.15 K | 353.15 K
100 kPa | 803.5 | 795.2 | 787.6 | 779.3 | 770.5 | 761 | 752.2
5000 kPa | 807.3 | 799.2 | 791.9 | 783.7 | 775.4 | 766 | 757.6
10000 kPa | 810.9 | 802.9 | 795.9 | 788 | 780 | 770.7 | 762.7
15000 kPa | 814.3 | 806.7 | 799.7 | 792 | 784.3 | 775.3 | 767.6
20000 kPa | 817.7 | 810.1 | 803.3 | 795.8 | 788.4 | 779.6 | 772.1
25000 kPa | 821 | 813.6 | 806.8 | 799.7 | 792 | 783.7 | 776.3
30000 kPa | 824 | 816.7 | 810.2 | 803.2 | 795.7 | 787.6 | 780.4
35000 kPa | 827 | 819.8 | 813.5 | 806.6 | 799.2 | 791.2 | 784.1
40000 kPa | 829.9 | 822.9 | 816.6 | 809.9 | 802.6 | 794.7 | 787.7
45000 kPa | 832.7 | 825.8 | 819.7 | 813 | 805.9 | 798.3 | 791.8
50000 kPa | 835.4 | 828.8 | 822.7 | 816.1 | 809.1 | 801.6 | 795.1
55000 kPa | 838.1 | 831.6 | 825.5 | 819 | 812.3 | 804.6 | 798.5
60000 kPa | 840.7 | 834.2 | 828.3 | 821.8 | 815.2 | 807.7 | 801.7
65000 kPa | 843.2 | 837 | 831 | 824.6 | 818.1 | 810.6 | 805
